The structures appear in SMILES notation.

The subject of the test is HEK293T cells carrying the ATF4 luciferase reporter. In words: ATF4-Luc assay (in vitro model of vanishing white matter disease). The format is cell-based. To be noted: Homo sapiens, HEK-293T, 1 μg/mL tunicamycin, 7 hours. The protocol:
In order to test exemplary compounds of the invention in a cellular context, a stable VWMD cell line was first constructed. The ATF4 reporter was prepared by fusing the human full-length ATF4 5′-UTR (NCBI Accession No. BCO22088.2) in front of the firefly luciferase (FLuc) coding sequence lacking the initiator methionine as described in Sidrauski et al (eLife 2013). The construct was used to produce recombinant retroviruses using standard methods and the resulting viral supernatant was used to transduce HEK293T cells, which were then subsequently selected with puromycin to generate a stable cell line.
HEK293T cells carrying the ATF4 luciferase reporter were plated on polylysine coated 384-well plates (Greiner Bio-one) at 30,000 cells per well. Cells were treated the next day with 1 μg/mL tunicamycin and 200 nM of a compound of Formula (I) for 7 hours. Luminescence was measured using One Glo (Promega) as specified by the manufacturer. Cells were maintained in DMEM with L-glutamine supplemented with 10% heat-inactivated FBS (Gibco) and Antibiotic-Antimycotic solution (Gibco).
Table 2 below summarizes the EC50 data obtained using the ATF4-Luc assay for exemplary compounds of the invention.
Broadly, the EC50 is the concentration needed to bring the measured effect to its halfway point. For the molecule `O=C(COc1ccc(Cl)c(F)c1)NC12CCC(C(=O)NCc3ccc(C(F)(F)F)cc3)(CC1)[C@@H](O)C2` (single isomer, unassigned) [Compound 266], the EC50 was less than 250 nM. To `O=C(COc1ccc(Cl)c(F)c1)NC12CCC(C(=O)NCC(=O)c3ccc(Cl)c(F)c3)(CC1)[C@H](O)C2` [Compound 347, (2R)-4-[2-(4-chloro-3-fluorophenoxy)acetamido]-N-[2-(4-chloro-3-fluorophenyl)-2-oxoethyl]-2-hydroxybicyclo[2.2.2]octane-1-carboxamide] belongs less than 250 nM; to `O=C(COc1ccc(Cl)c(F)c1)NC12CCC(C(=O)Nc3ccc(OC(F)(F)F)cn3)(C1)C2` [Compound 288, 4-[2-(4-chloro-3-fluorophenoxy)acetamido]-N-[5-(trifluoromethoxy)pyridin-2-yl]bicyclo[2.1.1]hexane-1-carboxamide], less than 250 nM. Consider `N#Cc1ccc(NC(=O)C23CC(NC(=O)COc4ccc(Cl)c(F)c4)(C2)C3)nc1` [Compound 305, 3-[2-(4-chloro-3-fluorophenoxy)acetamido]-N-(5-cyanopyridin-2-yl)bicyclo[1.1.1]pentane-1-carboxamide], for which the EC50 is less than 250 nM. To `O=C(COc1ccc(Cl)c(F)c1)NC12CCC(C(=O)NCc3ccc(Cl)cc3)(CC1)CC2` [Compound 260, 4-[2-(4-chloro-3-fluorophenoxy)acetamido]-N-[(4-chlorophenyl)methyl]bicyclo[2.2.2]octane-1-carboxamide] belongs less than 250 nM.

As to `O=C(COc1ccc(Cl)c(Cl)c1)NC12CC(C(=O)Nc3cccnc3)(C1)C2` [Compound 295, 3-[2-(3,4-dichlorophenoxy)acetamido]-N-(pyridin-3-yl)bicyclo[1.1.1]pentane-1-carboxamide], the EC50 is less than 250 nM. The result for `O=C(COc1ccc(Cl)c(F)c1)NC12CCC(C(=O)NCc3ccc(C(F)(F)F)cn3)(CC1)OC2` [Compound 335, 4-[2-(4-chloro-3-fluorophenoxy)acetamido]-N-{[5-(trifluoromethyl)pyridin-2-yl]methyl}-2-oxabicyclo[2.2.2]octane-1-carboxamide] reads less than 250 nM. As for `O=C(COc1ccc(Cl)c(F)c1)NC12CCC(C(=O)NCC(=O)c3ccc(Cl)c(F)c3)(CC1)[C@@H](O)C2` [Compound 326, (2S)-4-[2-(4-chloro-3-fluorophenoxy)acetamido]-N-[2-(4-chloro-3-fluorophenyl)-2-oxoethyl]-2-hydroxybicyclo[2.2.2]octane-1-carboxamide], the EC50 was less than 250 nM. Turning to `O=C(COc1ccc(F)c(F)c1)NC12CC(C(=O)Nc3ccc(OC(F)(F)F)cn3)(C1)C2` [Compound 308, 3-[2-(3,4-difluorophenoxy)acetamido]-N-[5-(trifluoromethoxy)pyridin-2-yl]bicyclo[1.1.1]pentane-1-carboxamide], the EC50 is less than 250 nM. For `O=C(COc1ccc(Cl)c(F)c1)NC12CC(C(=O)Nc3ccccn3)(C1)C2` [Compound 290, 3-[2-(4-chloro-3-fluorophenoxy)acetamido]-N-(pyridin-2-yl)bicyclo[1.1.1]pentane-1-carboxamide], the EC50 is less than 250 nM. To `CCOC(=O)c1ccc(NC(=O)C23CC(NC(=O)COc4ccc(Cl)c(F)c4)(C2)C3)nc1` [Compound 311, ethyl 6-({3-[2-(4-chloro-3-fluorophenoxy)acetamido]bicyclo[1.1.1]pentane-1-carbonyl}amino)pyridine-3-carboxylate] belongs 250 to 500 nM; to `O=C(COc1ccc(Cl)c(F)c1)NC12CCC(C(=O)NCc3ccc(Cl)c(F)c3)(CC1)OC2` [Compound 334, 4-[2-(4-chloro-3-fluorophenoxy)acetamido]-N-[(4-chloro-3-fluorophenyl)methyl]-2-oxabicyclo[2.2.2]octane-1-carboxamide], 250 to 500 nM. Turning to `O=C(COc1ccc(Cl)c(F)c1)NC12CC(C(=O)NCCOc3ccc(Cl)c(F)c3)(C1)C2` [Compound 340, 3-[2-(4-chloro-3-fluorophenoxy)acetamido]-N-[2-(4-chloro-3-fluorophenoxy)ethyl]bicyclo[1.1.1]pentane-1-carboxamide], the EC50 was less than 250 nM. The result for `O=C(COc1ccc(Cl)c(F)c1)NC12CC(C(=O)Nc3ccc(C(F)F)cn3)(C1)C2` [Compound 298, 3-[2-(4-chloro-3-fluorophenoxy)acetamido]-N-[5-(difluoromethyl)pyridin-2-yl]bicyclo[1.1.1]pentane-1-carboxamide] reads less than 250 nM. Turning to `O=C(COc1ccc(Cl)c(F)c1)NC12CCC(C(=O)Nc3ccc(OC(F)F)nc3)(CC1)CC2` [Compound 278, 4-[2-(4-chloro-3-fluorophenoxy)acetamido]-N-[6-(difluoromethoxy)pyridin-3-yl]bicyclo[2.2.2]octane-1-carboxamide], the EC50 is less than 250 nM. To `O=C(COc1ccc(Cl)c(F)c1)NC12CCC(C(=O)NCC(=O)c3ccc(Cl)cc3)(CC1)[C@@H](O)C2` [Compound 273, (2S)-4-[2-(4-chloro-3-fluorophenoxy)acetamido]-N-[2-(4-chlorophenyl)-2-oxoethyl]-2-hydroxybicyclo[2.2.2]octane-1-carboxamide] belongs less than 250 nM; to `O=C(COc1ccc(Cl)c(F)c1)NC12CCC(C(=O)NCc3ccc(C(F)(F)F)cc3)(CC1)[C@H](O)C2` (single isomer, unassigned) [Compound 267], less than 250 nM; to `O=C(COc1ccc(Cl)c(Cl)c1)NC12CC(C(=O)Nc3ccncc3)(C1)C2` [Compound 296, 3-[2-(3,4-dichlorophenoxy)acetamido]-N-(pyridin-4-yl)bicyclo[1.1.1]pentane-1-carboxamide], less than 250 nM. To `O=C(COc1ccc(Cl)c(F)c1)NC12CC(C(=O)NCc3nc4cc(F)c(F)cc4[nH]3)(C1)C2` [Compound 331, 3-[2-(4-chloro-3-fluorophenoxy)acetamido]-N-[(5,6-difluoro-1H-benzimidazol-2-yl)methyl]bicyclo[1.1.1]pentane-1-carboxamide] belongs less than 250 nM. The result for `O=C(COc1ccc(Cl)c(F)c1)NC12CCC(C(=O)NCc3ccc(OC(F)F)cn3)(C1)C2` [Compound 256, 4-[2-(4-chloro-3-fluorophenoxy)acetamido]-N-{[5-(difluoromethoxy)pyridin-2-yl]methyl}bicyclo[2.1.1]hexane-1-carboxamide] reads 1000 to 2000 nM; that for `O=C(COc1ccc(Cl)c(F)c1)NC12CC(C(=O)Nc3ccc(C4CC4)cn3)(C1)C2` [Compound 306, 3-[2-(4-chloro-3-fluorophenoxy)acetamido]-N-(5-cyclopropylpyridin-2-yl)bicyclo[1.1.1]pentane-1-carboxamide], less than 250 nM; that for `O=C(COc1ccc(Cl)c(F)c1)NC12CCC(C(=O)NCc3ccc(C(F)(F)F)cc3)(CC1)CC2O` (centres unmarked) [Compound 274, 4-[2-(4-chloro-3-fluorophenoxy)acetamido]-3-hydroxy-N-{[4-(trifluoromethyl)phenyl]methyl}bicyclo[2.2.2]octane-1-carboxamide], less than 250 nM. For the molecule `O=C(COc1ccc(Cl)c(F)c1)NC12CCC(C(=O)NCc3nc4ccc(Cl)cc4[nH]3)(CC1)CC2` [Compound 325, N-[(6-chloro-1H-benzimidazol-2-yl)methyl]-4-[2-(4-chloro-3-fluorophenoxy)acetamido]bicyclo[2.2.2]octane-1-carboxamide], the EC50 is less than 250 nM. Take `O=C(COc1ccc(Cl)c(F)c1)NC12CCC(C(=O)NCc3nc4cc(F)c(F)cc4[nH]3)(CC1)CC2O` (centres unmarked) [Compound 319, 4-[2-(4-chloro-3-fluorophenoxy)acetamido]-N-[(5,6-difluoro-1H-benzimidazol-2-yl)methyl]-3-hydroxybicyclo[2.2.2]octane-1-carboxamide]: the EC50 is less than 250 nM. To `O=C(COc1ccc(Cl)c(Cl)c1)NC12CCC(C(=O)Nc3ccc(OC(F)(F)F)cn3)(C1)C2` [Compound 292, 4-[2-(3,4-dichlorophenoxy)acetamido]-N-[5-(trifluoromethoxy)pyridin-2-yl]bicyclo[2.1.1]hexane-1-carboxamide] belongs less than 250 nM. Consider `O=C(COc1ccc(Cl)c(F)c1)NC12CCC(C(=O)N(CCO)Cc3ccc(Cl)c(F)c3)(CC1)CC2` [Compound 344, 4-[2-(4-chloro-3-fluorophenoxy)acetamido]-N-[(4-chloro-3-fluorophenyl)methyl]-N-(2-hydroxyethyl)bicyclo[2.2.2]octane-1-carboxamide], for which the EC50 is 1000 to 2000 nM.

For the molecule `O=C(COc1ccc(Cl)c(F)c1)NC12CC(C(=O)NCc3cnccn3)(C1)C2` [Compound 164, 3-[2-(4-chloro-3-fluorophenoxy)acetamido]-N-[(pyrazin-2-yl)methyl]bicyclo[1.1.1]pentane-1-carboxamide], the EC50 was greater than 2000 nM. The result for `O=C(COc1ccc2c(c1)OC(F)(F)O2)NC12CCC(C(=O)Nc3ccc(OC(F)(F)F)cn3)(C1)C2` [Compound 293, 4-{2-[(2,2-difluoro-2H-1,3-benzodioxol-5-yl)oxy]acetamido}-N-[5-(trifluoromethoxy)pyridin-2-yl]bicyclo[2.1.1]hexane-1-carboxamide] reads 250 to 500 nM; that for `O=C(COc1ccc(Cl)c(F)c1)NC12CC(C(=O)Nc3ccc(OC(F)(F)F)cn3)(C1)C2` [Compound 287, 3-[2-(4-chloro-3-fluorophenoxy)acetamido]-N-[5-(trifluoromethoxy)pyridin-2-yl]bicyclo[1.1.1]pentane-1-carboxamide], less than 250 nM.

For the origin of these results see US20240173307A1, “MODULATORS OF THE INTEGRATED STRESS PATHWAY” (Calico Life Sciences LLC, priority 2017, published 2024).
